1 compound from US20190350964A1, “ANTI-CANCER COMPOUNDS AND USES THEREOF” (NATIONAL UNIVERSITY OF SINGAPORE, priority 2016, published 2019) can be followed below.

One data set deals with Huh7. Put plainly: MTT cytotoxicity test (GI50). It counts as cell-based. The conditions noted are these: Homo sapiens, Huh-7; Huh7, cancer, liver; MTT 72 h.
In the next data set the test system is PI5P4Ks. Put plainly: Cellular PI5P4Ks activity assay in HeLa cells (PIP4KII Activity Assay Kit). It counts as cell-based, human. The settings on record: HeLa cells treated 24 h, lysate assayed with PI(5)P; read-out: IC50, combined cellular PI5P4Ks. As for the experimental part: HeLa cells were treated with DMSO or compounds for 24 h. Cells were lysed with RIPA buffer (Sigma-Aldrich), and total protein concentrations were measured using a bicinchoninic acid protein assay kit (Thermo Scientific). Next, 10 μg of cell lysate was incubated with 1 μM PI(5)P and 500 nM ATP for 1 h at 37° C. PI5P4K activity was measured by recording luminescent signals (Tecan) using a PIP4KII Activity Assay Kit (Echelon) according to the manufacturer's instructions. For cell-free PI5P4Kα activity assays, serial dilutions of compounds were pre-incubated with 1 ng of PI5P4Kα (kind gift from Daiichi Sankyo Co., Ltd. and Daiichi Sankyo RD Novare Co., Ltd.) in reaction buffer [50 mM HEPES (pH 7.0), 13 mM MgCl2, 0.005% CHAPS, 0.01% BSA, 2.5 mM DTT] for 1 h at 25° C. DOPS (80 μM, Avanti polar lipids), PI(5)P (20 μM, Echelon) and ATP (10 μM, Sigma-Aldrich) were added and further incubated for 90 min at room temperature. PI5P4Kα activity was measured by recording luminescent signals (Tecan) using an ADP-Glo Kinase Assay (Promega) according to the manufacturer's protocol.

The next data set deals with HeLa. Put plainly: MTT cytotoxicity test (GI50). The conditions noted are these: Homo sapiens, cancer, others, cervix, MTT 72 h. The class given is cell-based.
The test system of a further data set is NUGC3. Put plainly: MTT cytotoxicity test (GI50). The class given is cell-based. The settings on record: Homo sapiens, NUGC-3; NUGC3, cancer, gastric; MTT 72 h.
Data set [1] has as its target T1, Delta(3,5)-Delta(2,4)-dienoyl-CoA isomerase, mitochondrial (Homo sapiens, UniProt Q13011).
T1 construct: After collecting data covering >8,000 proteins in lysates of normal BJ cells; endogenous in cells; host or cells: normal BJ cells, lysate
Put plainly: MS-CETSA in normal BJ cell lysates. It counts as binding. The conditions noted are these: lysate, 100 μM compound.
Description: (§1) Target identification was performed by cellular thermal shift assay (CETSA) coupled with quantitative mass spectrometry. In brief, normal BJ cells were lysed by combination of freeze/thaw and mechanical shearing with needle in buffer [50 mM HEPES (pH 7.5), 5 mM β-glycerophosphate, 0.1 mM Sodium Vanadate, 10 mM MgCl2, 1 mM TCEP and 1× Protease inhibitor Cocktail]. The cell debris was removed by centrifugation at 20,000 g for 20 min at 4° C. […] Each lysate was divided into 10 aliquots for heat treatment at the respective temperatures for 3 min in a 96-well thermocycler, followed by 3 min at 4° C. The lysate was centrifuged at 20,000 g for 20 min at 4° C. and the supernatant was transferred into microtubes for MS sample preparation.
(§2) After lysis, at least 100 μg of the protein (measured with a BCA assay) was subjected to reduction, denaturation and alkylation. Samples were subsequently incubated with sequencing grade LysC (Wako) and trypsin (Promega) for digestion overnight at 37° C. The digested samples were dried using a centrifugal vacuum evaporator, solubilized in 100 mM TEAB. […]
(§3) Proteins for which a low temperature plateau was not present were deleted using a cut off >0.85 for the average reading of the first three temperature points (in our experience proteins melting already at −37° C. are more prone to give false positives in a shift analysis).

The next data set deals with Hep3. Put plainly: MTT cytotoxicity test (GI50). The class given is cell-based. The conditions noted are these: Homo sapiens; Hep3, cancer, liver; MTT 72 h.
In a further data set the test system is human cancer cell lines. Put plainly: MTT cytotoxicity test, panel of human cancer cell lines. It counts as cell-based. The conditions noted are these: mean over panel of human cancer cell lines; MTT 72 h.
Data set [2] has as its target T2, AP-3 complex subunit sigma-1 (Homo sapiens, UniProt Q92572).
T2 construct: After collecting data covering >8,000 proteins in lysates of normal BJ cells; endogenous in cells; host or cells: normal BJ cells, lysate
Put plainly: MS-CETSA in normal BJ cell lysates. The class given is binding. The settings on record: lysate, 100 μM compound.
Description: as §1, §2, §3

Data set [3] relates to MDA-MB-231 human breast tumor cells. Put plainly: MDA-MB-231 tumor xenograft in nude mice. The class given is in vivo, mouse. The settings on record: a131 20 mg/kg, b5 40-80 mg/kg, PO or IP twice daily, 15 days. The source says:
BALB/c athymic female nude mice (nu/nu, 5-7 weeks) (InVivos) were kept under specific pathogen-free (SPF) conditions. The care and use of mice was approved by the Duke-NUS IACUC in accordance with protocol 2015/SHS/1030. HCT15 human colon cancer cells (5×10^6) or MDA-MB-231 human breast cancer cells (4×10^6 with Matrigel) were subcutaneously injected into the flanks of mice. When the mean tumor volume reached 100-300 mm^3 (Day 1), the mice were randomly divided into experimental groups of 6 mice by an algorithm that moves animals around to achieve the best case distribution to assure that each treatment group has similar mean tumor burden and standard deviation. No statistical method was used to predetermine sample size. […] Tumor dimensions were measured using calipers, and tumor volume (mm^3) was calculated using the formula width^2×length/2 in a blinded fashion. […] Images were acquired in 3D-SIM mode using a super resolution microscope (Nikon), and the number of cells with either 2 or mitotic-spindles was quantified (n>50 cells per section, 6-7 sections per treatment). […] For the DAB image, a fixed threshold was used, watershed applied and the number of DAB stained nuclei counted. In all cases, no data or animals were excluded and results are expressed as mean and standard deviation of the mean.

In a further data set the test system is SNU1. Put plainly: MTT cytotoxicity test (GI50). It counts as cell-based. The conditions noted are these: Homo sapiens; SNU1, cancer, gastric; MTT 72 h.
Another data set concerns IST1. Put plainly: MTT cytotoxicity test (GI50). It counts as cell-based. The settings on record: Homo sapiens; IST1, cancer, gastric; MTT 72 h.
Data set [4] deals with HCT-15 human colon adenocarcinoma cells. Put plainly: HCT-15 tumor xenograft in nude mice. It counts as in vivo, mouse. The source says:
BALB/c athymic female nude mice (nu/nu, 5-7 weeks) (InVivos) were kept under specific pathogen-free (SPF) conditions. The care and use of mice was approved by the Duke-NUS IACUC in accordance with protocol 2015/SHS/1030. HCT15 human colon cancer cells (5×10^6) or MDA-MB-231 human breast cancer cells (4×10^6 with Matrigel) were subcutaneously injected into the flanks of mice. When the mean tumor volume reached 100-300 mm^3 (Day 1), the mice were randomly divided into experimental groups of 6 mice by an algorithm that moves animals around to achieve the best case distribution to assure that each treatment group has similar mean tumor burden and standard deviation. No statistical method was used to predetermine sample size. […] Paclitaxel (Cayman Chemical) was dissolved in ethanol:Tween 80=1:3 (v/v) solution followed by the addition of a 5% glucose solution (final ratio, ethanol:Tween 80:5% glucose=5:15:80) and injected via the tail vain (IV). Tumor dimensions were measured using calipers, and tumor volume (mm^3) was calculated using the formula width^2×length/2 in a blinded fashion. On Day 12 (HCT15) or Day 16 (MDA-MB-231), mice were sacrificed. Tumors were collected, fixed overnight in 4% paraformaldehyde (PFA) and stored in 70% ethanol. For immunostaining, antigens were retrieved from formaldehyde-fixed, paraffin-embedded tumor tissue sections for 30 min by boiling in sodium citrate buffer (pH 6.0) using a microwave histoprocessor (Milestone). Endogenous peroxidase activity in tissue sections was depleted by treatment with 3% hydrogen peroxide (H2O2 in 1×TBS) for 20 min at room temperature. Tumor tissue sections were incubated overnight with anti-β-tubulin (Abcam; 1:100 in 3% BSA/TBS-Tween 20) at 4° C. followed by incubation with goat anti-rabbit FITC-conjugated secondary antibody (Invitrogen; 1:200 in 3% BSA/TBS) for 1 h at 25° C. After dehydration treatment, coverslips were mounted using DAPI mounting medium (Vector). Images were acquired in 3D-SIM mode using a super resolution microscope (Nikon), and the number of cells with either 2 or mitotic-spindles was quantified (n>50 cells per section, 6-7 sections per treatment). For detection of apoptosis using the TUNEL method, the ApopTag Plus Peroxidase In Situ Apoptosis Detection Kit (Millipore) was used for formaldehyde-fixed, paraffin-embedded tumor tissue sections treated with b5 (80 mg/kg, IP) or control vehicle for 12 days. Slide scans were acquired using a MetaSystems Metafer built on a Zeiss Axiolmager Z.2 upright microscope. The system is equipped with a CoolCubel camera and a Zeiss Plan-Neofluar 20×/0.5 Ph2 objective lens. Image acquisition was controlled with Metafer4 software, and stitching was performed with the VSlide software and further processed using the open source software FIJI. A custom macro was used to batch process the images in the following sequence: Gaussian filter, color deconvolution of hematoxylin and DAB, thresholding the hematoxylin image, watershed to separate touching nuclei, and then count the number of hematoxylin-stained nuclei. For the DAB image, a fixed threshold was used, watershed applied and the number of DAB stained nuclei counted. In all cases, no data or animals were excluded and results are expressed as mean and standard deviation of the mean.

The test system of the next data set is NCC24. Put plainly: MTT cytotoxicity test (GI50). The class given is cell-based. The settings on record: Homo sapiens; NCC24, cancer, gastric; MTT 72 h.

T1 sequence (Q13011 34-328): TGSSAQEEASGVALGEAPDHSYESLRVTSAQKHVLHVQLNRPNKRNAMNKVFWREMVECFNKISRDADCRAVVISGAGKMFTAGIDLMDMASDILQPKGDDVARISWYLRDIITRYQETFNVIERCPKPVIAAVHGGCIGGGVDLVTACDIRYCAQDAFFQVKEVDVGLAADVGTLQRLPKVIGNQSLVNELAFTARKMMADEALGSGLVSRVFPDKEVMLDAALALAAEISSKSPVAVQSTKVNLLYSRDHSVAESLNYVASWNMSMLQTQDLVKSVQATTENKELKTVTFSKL
T2 sequence (Q92572 whole entry): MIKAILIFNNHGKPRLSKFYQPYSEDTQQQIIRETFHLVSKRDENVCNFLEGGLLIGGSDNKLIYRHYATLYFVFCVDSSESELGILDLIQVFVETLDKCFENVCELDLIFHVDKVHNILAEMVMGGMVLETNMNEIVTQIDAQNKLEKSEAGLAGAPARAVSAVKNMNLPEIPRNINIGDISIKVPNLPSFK
T2 sequence (O14617 whole entry partner): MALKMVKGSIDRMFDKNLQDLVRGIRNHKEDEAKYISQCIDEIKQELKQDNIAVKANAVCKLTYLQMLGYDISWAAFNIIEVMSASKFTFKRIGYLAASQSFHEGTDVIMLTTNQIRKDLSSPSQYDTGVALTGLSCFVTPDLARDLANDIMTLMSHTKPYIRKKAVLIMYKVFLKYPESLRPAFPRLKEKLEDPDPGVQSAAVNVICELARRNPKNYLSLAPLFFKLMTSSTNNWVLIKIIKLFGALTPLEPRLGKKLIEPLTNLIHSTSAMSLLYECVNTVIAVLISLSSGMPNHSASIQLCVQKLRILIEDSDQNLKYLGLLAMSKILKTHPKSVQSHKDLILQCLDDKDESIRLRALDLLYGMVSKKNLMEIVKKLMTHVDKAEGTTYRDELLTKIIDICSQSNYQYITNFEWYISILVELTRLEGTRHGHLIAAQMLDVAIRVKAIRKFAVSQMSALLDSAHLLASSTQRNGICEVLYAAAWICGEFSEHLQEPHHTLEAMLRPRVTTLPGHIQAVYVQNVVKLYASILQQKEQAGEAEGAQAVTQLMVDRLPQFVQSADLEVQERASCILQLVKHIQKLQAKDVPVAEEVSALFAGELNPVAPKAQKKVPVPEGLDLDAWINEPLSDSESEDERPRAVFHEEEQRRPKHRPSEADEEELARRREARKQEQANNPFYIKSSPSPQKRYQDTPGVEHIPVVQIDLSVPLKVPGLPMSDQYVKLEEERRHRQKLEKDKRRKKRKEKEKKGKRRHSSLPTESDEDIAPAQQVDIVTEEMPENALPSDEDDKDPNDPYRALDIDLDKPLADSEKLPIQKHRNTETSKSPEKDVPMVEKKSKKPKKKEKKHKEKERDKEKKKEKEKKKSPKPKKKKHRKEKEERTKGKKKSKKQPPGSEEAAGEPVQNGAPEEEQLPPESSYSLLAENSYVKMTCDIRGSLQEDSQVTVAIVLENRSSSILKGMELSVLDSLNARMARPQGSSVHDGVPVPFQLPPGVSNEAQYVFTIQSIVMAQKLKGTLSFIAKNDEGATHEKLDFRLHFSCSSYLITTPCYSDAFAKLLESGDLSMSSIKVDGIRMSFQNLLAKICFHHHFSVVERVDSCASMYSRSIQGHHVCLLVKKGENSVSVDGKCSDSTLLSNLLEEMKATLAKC
T2 sequence (O00203 whole entry partner): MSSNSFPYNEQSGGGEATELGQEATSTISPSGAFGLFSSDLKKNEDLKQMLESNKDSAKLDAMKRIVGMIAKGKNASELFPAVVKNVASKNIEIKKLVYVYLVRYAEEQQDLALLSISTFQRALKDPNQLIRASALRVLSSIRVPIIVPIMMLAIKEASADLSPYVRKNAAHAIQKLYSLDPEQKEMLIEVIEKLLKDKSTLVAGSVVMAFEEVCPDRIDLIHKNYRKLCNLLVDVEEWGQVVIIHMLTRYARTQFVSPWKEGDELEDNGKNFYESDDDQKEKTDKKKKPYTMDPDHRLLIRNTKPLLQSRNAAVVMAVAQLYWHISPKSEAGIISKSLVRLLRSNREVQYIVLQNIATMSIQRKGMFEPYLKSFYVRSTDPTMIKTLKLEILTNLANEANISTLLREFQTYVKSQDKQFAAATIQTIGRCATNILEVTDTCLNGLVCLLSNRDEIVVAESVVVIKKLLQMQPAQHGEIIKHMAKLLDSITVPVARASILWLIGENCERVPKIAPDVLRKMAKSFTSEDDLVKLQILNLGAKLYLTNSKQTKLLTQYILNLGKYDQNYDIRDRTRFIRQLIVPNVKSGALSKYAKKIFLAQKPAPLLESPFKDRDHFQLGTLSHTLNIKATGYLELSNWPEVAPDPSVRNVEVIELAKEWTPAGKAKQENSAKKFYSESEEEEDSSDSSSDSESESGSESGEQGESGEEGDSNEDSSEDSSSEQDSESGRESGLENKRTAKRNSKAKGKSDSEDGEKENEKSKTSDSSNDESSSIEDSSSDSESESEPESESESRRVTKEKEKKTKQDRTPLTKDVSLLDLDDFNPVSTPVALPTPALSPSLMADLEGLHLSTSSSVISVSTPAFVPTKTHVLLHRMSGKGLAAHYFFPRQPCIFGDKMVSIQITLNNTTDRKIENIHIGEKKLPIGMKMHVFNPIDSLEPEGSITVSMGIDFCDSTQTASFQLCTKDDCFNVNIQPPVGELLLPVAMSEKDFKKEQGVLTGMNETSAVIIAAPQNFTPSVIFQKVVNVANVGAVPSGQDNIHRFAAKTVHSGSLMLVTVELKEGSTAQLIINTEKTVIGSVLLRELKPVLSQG
T2 sequence (Q9Y2T2 whole entry partner): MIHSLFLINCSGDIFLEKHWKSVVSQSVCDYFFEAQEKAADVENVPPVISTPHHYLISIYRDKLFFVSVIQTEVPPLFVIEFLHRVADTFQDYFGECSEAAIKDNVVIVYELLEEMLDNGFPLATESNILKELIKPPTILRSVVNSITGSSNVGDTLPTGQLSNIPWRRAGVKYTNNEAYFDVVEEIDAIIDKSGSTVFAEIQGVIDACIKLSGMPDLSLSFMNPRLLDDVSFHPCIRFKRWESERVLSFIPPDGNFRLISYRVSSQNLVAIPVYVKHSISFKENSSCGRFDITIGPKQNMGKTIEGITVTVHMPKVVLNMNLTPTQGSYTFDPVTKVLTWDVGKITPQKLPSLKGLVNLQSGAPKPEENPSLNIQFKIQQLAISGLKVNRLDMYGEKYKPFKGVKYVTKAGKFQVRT

Turning to `N#C/C(=C\c1cccc2cnccc12)c1c[nH]c2ccccc12` [a131, (Z)-2-(1H-indol-3-yl)-3-(5-isoquinolyl)prop-2-enenitrile], the concentration for 50% growth inhibition (GI50) was found to be 1200 nM in the data set on Huh7; 1400 nM in the data set with HeLa; 1000 nM in the data set with NUGC3; 3700 nM in the data set with Hep3; 1700 nM with human cancer cell lines; 900 nM with SNU1. For the same compound, the GI50 in the data set with IST1 turned out to be 2200 nM; in the data set on NCC24, 1200 nM. In addition, in the data set on PI5P4Ks, the half-inhibitory concentration (IC50) is 600 nM. For the same compound, the ED score in data set [1] worked out at 0.3541; in data set [2] it was 0.3486. The ΔTm at 100 µM is 1.51 °C in [1] (read-out: mean Delta Tm) and 2.26 °C in data set [2] (read-out: mean Delta Tm). The “antitumor activity (tumor volume)” value in data set [3] was “marked antitumor efficacies”; in data set [4] (a131 20 mg/kg, b5 40-80 mg/kg, PO or IP twice daily, 12 days, paclitaxel IV), “marked antitumor efficacies”. In addition, the “misaligned chromosomes / multipolar spindles in tumor sections” value in data set [4] (HCT-15 tumor sections, Day 12) is reported as “caused massively misaligned chromosomes with multipolar spindles in tumor sections”. In addition, the body weight loss entry in [4] (xenograft-bearing mice, PO or IP twice daily) is reported as “without any body weight loss”.
